Laboratory results as given in article PMC11662004 (Communications Chemistry, 2024).
Several values for one entry are separate records, joined by “and”; a condition that tells them apart may be missing. Equal values may be shown once.

Columns and labels:
NgTet1 [1] = biological target: T1, NgTet1 (Naegleria gruberi, UniProt D2W6T1); assay: AlphaScreen competition assay with biotinylated 5mC dsDNA; type: binding; conditions: 100 nM NgTet1, 50 nM 5mC dsDNA; for competition pIC50 NgTet1: n = 2
T1 construct: His6-tagged full-length Naegleria gruberi NgTet1 (321 a. a.) protein with a thrombin cleavage site; made in house; host or cells: E. coli BL21(DE3)
T1 sequence (D2W6T1 1-321): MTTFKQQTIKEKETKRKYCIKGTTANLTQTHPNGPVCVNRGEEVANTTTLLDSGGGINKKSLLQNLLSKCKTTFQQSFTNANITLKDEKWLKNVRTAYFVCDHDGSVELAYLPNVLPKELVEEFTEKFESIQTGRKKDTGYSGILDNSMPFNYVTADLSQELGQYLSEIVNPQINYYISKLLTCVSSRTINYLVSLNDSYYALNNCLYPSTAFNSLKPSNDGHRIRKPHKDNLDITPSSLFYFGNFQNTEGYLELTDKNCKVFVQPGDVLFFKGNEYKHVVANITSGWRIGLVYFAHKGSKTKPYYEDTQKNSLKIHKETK
Procedure: AlphaScreen™ Histidine (Nickel Chelate) Detection Kit was used to evaluate displacement of […] (^5mC dsDNA)[33],[34]. Competitor DNA oligomers in assay buffer were manually dispensed onto 384-well ProxiPlates (5 μL) in a 2-fold dilution series. His6-tagged NgTet1 or TET2CDΔLCI in assay buffer was added (5 μL), and the mixture was pre-incubated with the competitor DNA at room temperature for 10 min. Cofactors and biotinylated ^5mC dsDNA in assay buffer were added (5 μL), and the mixture was further incubated at room temperature for 10 min. A mixture of AlphaScreen beads (1:62.5 dilution) in assay buffer was added (5 μL), and the full mixture was incubated at room temperature for 1 h. The final mixtures (20 μL) contained 100 nM NgTet1 (50 nM ^5mC dsDNA) or 12.5 nM TET2CDΔLCI (12.5 nM ^5mC dsDNA), 50 μM sodium L-ascorbate, 5 μM (NH4)2Fe(SO4)2, and 5 μM disodium NOG in assay buffer (50 mM HEPES [pH 7.3], 150 mM NaCl, 0.1% v/v BSA, 0.01% v/v Tween® 20). For the assay interference counter screen, His6-tagged TET protein and biotinylated ^5mC dsDNA were replaced with 1.6 nM biotinylated His6 peptide. Chemiluminescence was measured on a PHERAstar FS/FSX (BMG Labtech) equipped with an AlphaScreen 680 570 module. All AlphaScreen bead manipulations were performed under subdued lighting. Inhibition data was normalised to reactions containing no competitor and fitted using “log(inhibitor) vs. response - Variable slope (four parameters)” non-linear regression model on GraphPad Prism 5. […]
Fig. S5 TETs bind to DNA in a sequence- and modification-independent manner. A binding assay between a biotinylated 5mC dsDNA oligomer and His6-tagged TET was developed using AlphaScreen Histidine (Nickel Chelate) assay. […] Conditions: a 100 nM NgTet1 (50 nM 5mC dsDNA), b 12.5 nM TET2CDΔLCI (12.5 nM 5mC dsDNA), c 1.6 nM biotinylated His6 peptide. Each assay was supplemented with 50 μM sodium L-ascorbate, 5 μM (NH4)2Fe(SO4)2, and 5 μM disodium NOG. Data shown as the mean of three to four experimental replicates (n = 3–4; mean ± SD); tabulated data reported as the mean of two independent replicates (n = 2).

NgTet1 [2] = biological target: T1, NgTet1; assay: biochemical; conditions: for normalised activity, %: AlphaScreen
Procedure: (Fig. 5a), were screened for inhibitory activity against NgTet1.
Activity was normalised against reactions containing vehicle (DMSO). […] AS data shown as the mean of three experimental replicates (n = 3; mean ± SD); ^1H NMR data plotted from two independent replicates (n = 2); tabulated data reported as the mean of two and three independent replicates for ^1H NMR and AS, respectively (n = 2–3, SD reported for n = 3). N. d.: not determined; AS: AlphaScreen.
Compounds in DMSO (100 nL) were pre-dispensed in a logarithmically linear concentration gradient onto 384-well ProxiPlates using an Echo® 550 acoustic liquid handler (Labcyte). NgTet1 was pre-incubated with the inhibitor dilution series in DMSO at room temperature for 10 min. Reactions were initiated by the addition of appropriate cofactors and DNA. […] The reactions were quenched by the addition of 30 mM EDTA (pH 4.2), 358 mM NaCl (5 μL) within the enzyme linear activity window (determined in Fig. S10). Concurrently, a mixture containing the anti-^5hmC antibody (1:2000 dilution) and AlphaScreen beads (1:62.5 dilution) in assay buffer was prepared and incubated at room temperature for 30 min. The AlphaScreen bead/antibody mixture was added to the quenched NgTet1 reactions (5 μL), and the complete mixture was incubated at room temperature for 1 h. Chemiluminescence was measured on a PHERAstar FS/FSX (BMG Labtech) equipped with an AlphaScreen 680 570 module. All AlphaScreen bead manipulations were performed under subdued lighting. Inhibition data was normalised to reactions containing vehicle only (1% v/v DMSO) and fitted using “log(inhibitor) vs. response—Variable slope (four parameters)” non-linear regression model on GraphPad Prism 5.

NgTet1 [3] = biological target: T1, NgTet1; assay: End-point analysis for tandem activity detection (SPE-MS); type: biochemical; conditions: 5 µM NgTet1, 20 µM DNA, SPE-MS (Fig. S4)
Procedure: SPE-MS spectra were recorded on an Agilent RapidFire 365 High-throughput Mass Spectrometry system coupled to an Agilent 6550 iFunnel Q-TOF mass spectrometer following reported procedures[33],[34]. A RapidFire C4 (type A) solid-phase extraction (SPE) cartridge (Agilent, Cat#: G9203A) was used for analyte separation. A binary solvent system was used. Solvent A: 6 mM octylammonium acetate (prepared as described previously)[45] in H2O; solvent B: 80% v/v MeCN in H2O. Samples were aspirated into the sample loop using vacuum (40 μL) from a 96/384-well plate and loaded directly onto the SPE cartridge. The cartridge was washed with solvent A (4,000 ms, 1.5 mL min^−1), and the analyte was eluted with solvent B (4000 ms; 1.25 mL min^−1) onto the Q-TOF MS. Following each sample injection, the SPE cartridge was flushed with 3–6 cycles of H2O and MeCN to remove residual analyte before re-equilibration into solvent A. Q-TOF settings for DNA oligomer analysis were as follows: drying gas temperature: 280 °C; drying gas flow: 13 L min^−1; nebuliser gas pressure: 40 psig; sheath gas temperature: 350 °C; sheath gas flow: 12 L min^−1; capillary voltage (Vcap): 4000 V; nozzle voltage: 0 V; fragmentor voltage: 250 V; spectrum acquisition rate: 5 Hz. Data was processed using Agilent MassHunter Qualitative Analysis™ (B.07.00) and RapidFire Integrator software.
The samples were analysed by SPE-MS. […]

Row | Molecule | IC50 (NgTet1 [1]) [µM] | competition pIC50 NgTet1 (NgTet1 [1]) | normalised activity, % (NgTet1 [2]; -Log[inhibitor] (M) 3.30535) | normalised activity, % (NgTet1 [2]; -Log[inhibitor] (M) 3.82823) | normalised activity, % (NgTet1 [2]; -Log[inhibitor] (M) 4.30535) | normalised activity, % (NgTet1 [2]; -Log[inhibitor] (M) 4.90741) | normalised activity, % (NgTet1 [2]; -Log[inhibitor] (M) 5.39553) | normalised activity, % (NgTet1 [2]; -Log[inhibitor] (M) 5.91841) | normalised activity, % (NgTet1 [2]; -Log[inhibitor] (M) 6.39553) | normalised activity, % (NgTet1 [2]; -Log[inhibitor] (M) 6.99759) | normalised activity, % (NgTet1 [2]; -Log[inhibitor] (M) 7.50947) | normalised activity, % (NgTet1 [2]; -Log[inhibitor] (M) 8.03235) | IC50 (NgTet1 [2]; read-out: IC50, 5mC ssDNA, AS) [µM] | enzymatic oxidation by NgTet1 (NgTet1 [3])
1 | AT DNA: double-stranded self-complementary 5'-ACC ACA TGT GGT-3', CpG replaced by ApT (DNA ACCACATGTGGT; DNA, backbone and methylation of C not given here; self-complementary duplex) | 56.2 | 4.25 |  |  |  |  |  |  |  |  |  |  |  | 
2 | O=C(O)CNC(=O)C(=O)O [NOG, N-oxalylglycine] |  |  | 27.0589% and 23.4073% and 23.5938% | 54.6166% and 46.9965% and 50.3704% | 72.1146% and 66.2321% and 78.0488% | 90.0386% and 80.363% and 83.4878% | 101.245% and 102.244% and 89.2336% | 103.288% and 99.259% and 97.2201% | 114.516% and 95.8112% and 105.039% | 113.992% and 95.1834% and 95.7883% | 110.682% and 100% and 109.028% | 108.192% and 91.8591% and 90.7491% | 200 | 
3 | 5HC DNA: non-methylated DNA of the same sequence, 5'-ACC ACC GGT GGT-3', non-substrate (DNA ACCACCGGTGGT; DNA, backbone not given here) | 57.5 | 4.24 |  |  |  |  |  |  |  |  |  |  |  | did not undergo enzymatic oxidation
